# Measured values from PMC9979163, “Discovery and functional characterization of N-(thiazol-2-yl)-benzamide analogs as the first class of selective antagonists of the Zinc-Activated Channel (ZAC)” (Biochemical pharmacology, 2021).
# Key:
# Assay type in all cases: cell-based
# [1] = target: hα1β2γ2s GABAAR (Homo sapiens, UniProt P14867+P18507+P47870); assay: TEVC selectivity, hα1β2γ2s GABAAR in oocytes; conditions: 30 μM, 30 s preapplication, 30 μM GABA (EC20–EC40)
# Protocol: (§1) The cDNAs for the various WT and chimeric CLR subunits were linearized and subsequently transcribed and capped mMessage mMachine T7 RNA transcription kit (Ambion, Waltham, MA). […]
# (§2) On the day of experiment, all compound dilutions were prepared in a saline solution [115 mM NaCl, 2.5 mM KCl, 10 mM MOPS (pH 7.5), 1.8 mM CaCl2, 0.1 mM MgCl2] and pH adjusted to 7.5 (if needed). […] Currents were recorded using pCLAMP 10 (Molecular Devices, Sunnyvale, CA). […]
# (§3) In all recordings, the compounds or compound combinations were applied in the bath until the peak current decayed to a steady state (up to 30 sec at the most). […] The functional properties of the modulators at the CLRs were determined by pre-application of the modulator to the perfusate 30 sec and followed by co-application of the modulator and the agonist to the perfusate. […]
# (§4) Data analysis of the results from the TEVC recordings were performed using Clampfit software version 10.5 (Molecular Devices, Crawley, UK) and GraphPad Prism version 7.0c (GraphPad Software, Inc. La Jolla, CA). […] I-V relationships were analyzed by fitting the curves with a third order polynomial model. […]
# [2] = target: T1, ZAC (Homo sapiens, UniProt Q401N2); assay: TEVC recordings, H+-evoked currents at ZAC expressed in Xenopus oocytes
# T1 sequence (Q401N2 26-412): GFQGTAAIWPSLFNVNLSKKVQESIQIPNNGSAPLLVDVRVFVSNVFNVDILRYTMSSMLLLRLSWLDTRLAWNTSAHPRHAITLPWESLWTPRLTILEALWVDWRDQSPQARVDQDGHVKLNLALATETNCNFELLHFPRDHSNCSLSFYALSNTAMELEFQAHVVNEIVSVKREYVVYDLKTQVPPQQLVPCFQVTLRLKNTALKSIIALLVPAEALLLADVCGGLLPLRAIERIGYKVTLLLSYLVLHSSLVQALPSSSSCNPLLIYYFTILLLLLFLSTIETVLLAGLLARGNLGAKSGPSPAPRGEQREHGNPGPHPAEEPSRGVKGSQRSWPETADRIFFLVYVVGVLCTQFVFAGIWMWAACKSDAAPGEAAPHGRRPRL
# Protocol: as §1, §2, §3, §4
# [3] = target: T1, ZAC; assay: FMP assay at ZAC-HEK293 cells
# Protocol: The screening of the 1,680 compounds in the compound library for antagonist activity at the ZAC-HEK293 cell line was performed in the FMP assay essentially as previously described. The day before the assay, cells were split into poly-D-lysine-coated black 96-well plates with clear bottoms (BD Biosciences, Palo Alto, CA) (6 × 10^4 cells/well). The following day, the culture medium was aspirated and the wells were washed once with 100 μl assay buffer (140 mM NaCl, 4.7 mM KCl, 2.5 mM CaCl2, 1.2 mM MgCl2, 11 mM HEPES, 10 mM D-glucose, pH 7.4), after which 100 μl assay buffer supplemented with FMP dye (0.5 mg/ml) and the various test compounds were added to the wells. The plate was then incubated at 37 °C for 30 min and assayed in a NOVOStar plate reader (BMG Labtechnologies, Offenburg, Germany) measuring emission at 560 nm caused by excitation at 530 nm before and up to 1 min after the addition of 33 μl of agonist solution. In the screening, the 1,680 compounds in the compound library were tested at assay concentrations in the 10–30 μM range, using Cu^2+ as agonist at an assay concentration of 200 μM.
# Data from the FMP assay was analysed using KaleidaGraph 3.08 (Synergy Software, Reading, PA). Concentration-response curves for Cu^2+ and concentration-inhibition curves for compound 1 were constructed based on the difference in the relative fluorescence units (RFU) between the maximal fluorescence recorded before and after application of Cu^2+. The data were fitted to sigmoidal curves with variable slopes using nonlinear regression, and EC50 (Cu^2+) and IC50 (compound 1) values were derived from these equations.
# Sequence of hα1β2γ2s GABAAR (P14867 28-456): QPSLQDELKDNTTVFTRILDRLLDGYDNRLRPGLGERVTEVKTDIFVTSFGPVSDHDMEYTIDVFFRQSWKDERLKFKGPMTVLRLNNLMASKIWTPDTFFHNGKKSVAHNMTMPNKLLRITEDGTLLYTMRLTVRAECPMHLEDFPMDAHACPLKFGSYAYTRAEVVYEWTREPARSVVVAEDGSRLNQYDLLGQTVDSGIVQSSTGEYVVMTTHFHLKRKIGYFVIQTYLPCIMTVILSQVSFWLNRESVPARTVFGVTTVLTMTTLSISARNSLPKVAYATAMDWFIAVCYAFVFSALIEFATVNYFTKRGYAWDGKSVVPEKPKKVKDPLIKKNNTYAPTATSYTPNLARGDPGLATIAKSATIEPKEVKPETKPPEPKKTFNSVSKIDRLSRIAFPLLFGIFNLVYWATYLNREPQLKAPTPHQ
# Sequence of hα1β2γ2s GABAAR (P47870 25-512 limits assumed): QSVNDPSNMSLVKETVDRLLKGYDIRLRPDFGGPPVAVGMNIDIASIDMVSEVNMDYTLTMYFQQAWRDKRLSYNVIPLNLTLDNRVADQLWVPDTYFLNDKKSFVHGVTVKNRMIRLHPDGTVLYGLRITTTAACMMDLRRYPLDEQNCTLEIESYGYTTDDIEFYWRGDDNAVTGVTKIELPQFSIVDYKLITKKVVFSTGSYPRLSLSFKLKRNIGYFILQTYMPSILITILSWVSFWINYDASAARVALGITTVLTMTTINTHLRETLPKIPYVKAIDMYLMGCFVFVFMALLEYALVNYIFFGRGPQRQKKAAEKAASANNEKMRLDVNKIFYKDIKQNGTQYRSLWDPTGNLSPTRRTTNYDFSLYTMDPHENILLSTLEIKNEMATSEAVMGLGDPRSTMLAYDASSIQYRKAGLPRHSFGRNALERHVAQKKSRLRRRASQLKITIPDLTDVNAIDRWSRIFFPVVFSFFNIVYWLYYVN
# Sequence of hα1β2γ2s GABAAR (P18507 40-467 isoform P18507-1 limits assumed): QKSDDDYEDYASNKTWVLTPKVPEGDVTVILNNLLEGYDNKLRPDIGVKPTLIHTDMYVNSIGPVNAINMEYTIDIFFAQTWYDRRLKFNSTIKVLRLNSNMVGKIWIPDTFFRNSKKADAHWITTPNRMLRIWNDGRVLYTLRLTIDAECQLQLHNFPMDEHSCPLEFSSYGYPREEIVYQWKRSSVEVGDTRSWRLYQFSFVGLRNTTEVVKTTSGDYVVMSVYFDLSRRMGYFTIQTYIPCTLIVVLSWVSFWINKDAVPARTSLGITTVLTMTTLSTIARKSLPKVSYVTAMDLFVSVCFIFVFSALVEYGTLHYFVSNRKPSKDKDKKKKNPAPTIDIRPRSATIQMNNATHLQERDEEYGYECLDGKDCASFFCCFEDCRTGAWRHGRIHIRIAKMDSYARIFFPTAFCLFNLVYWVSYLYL
"Agonist, antagonist or PAM activity [1]","Voltage dependence of ZAC inhibition ([2]; 10 μM, H+ (pH 6.5)-evoked currents, −60 mV and +60 mV)","IC50 ([2]; H+ (pH 6.0) as agonist, TEVC, steady-state current, n = 6) [µM]",IC50 [3] [µM],SMILES
did not display significant activity,voltage-independent,8.5,–,"CC(C)(C)c1csc(NC(=O)c2cccc(F)c2)n1 [5a, N-(4-(tert-butyl)thiazol-2-yl)-3-fluorobenzamide]"
–,–,–,6.1,"COC(=O)c1sc(NC(=O)c2cc(Br)ccc2Cl)nc1C [compound 1, 2-(5-bromo-2-chlorobenzamido)-4-methylthiazole-5-methyl ester]"
